Assay results from patent publication US12485117B2, “Compositions and methods for activating signaling through the CB1 cannabinoid receptor for treating and preventing diseases and disorders characterized by abnormal cellular accumulation of sphingolipids such as sphingomyelin” (Wylder Nation Foundation, priority 2018, dated 2025).

Legend:
Assay type in all cases: cell-based, mouse
[1] = system: cultured primary hippocampal neurons from ASMko mice; assay: Sphingomyelin levels by enzymatic assay in cultured primary hippocampal neurons from ASMko mice
Text: (§1) FIGS. 5A-5D show sphingomyelin and endocannabinoid levels in cultured primary hippocampal neurons and hippocampal tissue, respectively, from ASMko and wildtype mice.
Statistical significance Student's t-test, *P<0.05, **P<0.005, n=3 independent cultures.
Statistical significance Student's t-test, **P<0.005, n=3 independent cultures.
Anandamide (AEA) is the major endogenous CB1 ligand. We therefore tested whether increased levels of anandamide affected sphingomyelin levels in cultured primary hippocampal neurons from ASMko mice. Anandamide was increased in two ways: • 1. By incubating the neuronal cultures with exogenous anandamide; and • 2. By incubating the neuronal cultures with PF-04457845, which is an inhibitor of the anandamide hydrolytic enzyme FAAH. Inhibition of FAAH causes accumulation of anandamide by inhibiting FAAH-mediated hydrolyzation of anandamide.
The following experiments were performed in three independent cultures of hippocampal neurons derived from ASMko mice. Treatments were done at 11-13 days in vitro when these cells are considered mature and functional.
To set the optimal conditions for such hydrolysis in terms of concentration and time of incubation, anandamide was added to the culture medium of mature ASMko hippocampal neurons at 0, 5, 25, 50 and 100 μM for 30 minutes or 1 hour. […] The optimal conditions for SM degradation were in a range of concentration of 25-50 μM for 1 hour. […] We therefore decided to use 25 μM anandamide for 1-hour incubation time in our next experiments.
Similar to the anandamide dose/time response experiment above, we performed another dose response experiment using URB597 (URB), an inhibitor of the anandamide-hydrolyzing enzyme FAAH, to be used as reference for the other FAAH inhibitors. The experiments were done in the presence or absence of exogenous anandamide. URB was added to the culture medium of ASMko mature neurons at 0, 5, 25 and 50 μM for 1 hour with or without □□ μM anandamide.
We next compared URB efficacy to reduce SM levels with that of other FAAH inhibitors PF-04457845 (PF) and JNJ-1661010 (JNJ).

[2] = system: wildtype cultured neurons; assay: Sphingomyelin levels in wildtype cultured neurons; conditions: wildtype (FIG. 5D)
Text: as §1
It has been shown that mGluR activation promotes 2-AG synthesis and CB1 stimulation (Maccarrone et al., Nat Neurosci 2008). We therefore sought to determine whether activation of mGluR5 with the allosteric activator CDPPB might induce sphingomyelin breakdown in ASMko neurons. […] Thus, the effect of decreased CB1 expression might be further exacerbated by decrease in endogenous endocannabinoid signaling, at least via 2-AG.

[3] = system: permeabilized ASMko neurons; assay: Lysenin staining of SM in intracellular compartments of permeabilized ASMko neurons; conditions: 1 hour at 50 μM (FIG. 9)
Method: Statistical significance Student's t-test, *P<0.05, n=3 independent cultures.
To determine whether SM hydrolysis induced by FAAH inhibitors was taking place not only at the cell surface, but also in intracellular compartments, we performed staining with lysenin, a worm toxin that specifically binds to SM, in permeabilized ASMko neurons non-treated or treated with anandamide, URB, PF-04457845 or JNJ for 1 hour at 50 μM.

[4] = system: ASMko cultured neurons; assay: TUNEL assay of neuronal death in ASMko cultured neurons; conditions: 50 μM for 1 hour
Method: FIG. 10B is a graph showing mean±SEM percentage of apoptotic cells, measured by TUNEL assay, with respect to the positive control in which the cells were treated with H202.
The percentage of dying neurons showing DNA fragmentation was 5-8% in the treated ASMko cultures similar to the non-treated ones.

[5] = system: ASMko cultured neurons; assay: MAP2 immunofluorescence of dendrites in ASMko cultured neurons; conditions: 50 μM for 1 hour

## N#Cc1cccc(C(=O)Nc2cc(-c3ccccc3)nn2-c2ccccc2)c1 [CDPPB, 3-Cyano-N-(1,3-diphenyl-1H-pyrazol-5-yl)benzamide]
[1]; 15 μM, ASMko cultured neurons (FIG. 5D)
  sphingomyelin levels: significant decreases in sphingomyelin levels
[2]
  sphingomyelin levels: did not affect sphingomyelin levels

## O=C(Nc1ccccc1)N1CCN(c2nc(-c3ccccc3)ns2)CC1 [JNJ-1661010]
[1]; 50 μM and 1 hour (FIG. 8)
  SM hydrolysis: promoted SM hydrolysis
[3]
  SM levels in intracellular compartments (lysenin staining): variable tendency to SM reduction that was not statistically significant
[4]
  neuronal death as assessed by TUNEL: did not induce neuronal death
[5]
  morphology, length, appearance of dendrites (MAP2): did not alter the morphology, length or homogeneous appearance of dendrites

## NC(=O)c1cccc(-c2cccc(OC(=O)NC3CCCCC3)c2)c1 [URB597]
[1]; 0, 5, 25 and 50 μM for 1 hour, without exogenous anandamide (FIG. 7)
  SM levels, dose response: dose dependent reduction of SM levels
[1]; 50 μM and 1 hour (FIG. 8)
  SM hydrolysis: promoted SM hydrolysis
  efficacy to reduce SM levels compared among FAAH inhibitors: most reliable and efficient
[3]
  SM levels in intracellular compartments (lysenin staining): significantly reduced SM levels
[4]
  neuronal death as assessed by TUNEL: did not induce neuronal death
[5]
  morphology, length, appearance of dendrites (MAP2): did not alter the morphology, length or homogeneous appearance of dendrites

## CCCCC/C=C\C/C=C\C/C=C\C/C=C\CCCC(=O)NCCO [anandamide]
[1]; 0, 5, 25, 50 and 100 μM for 30 minutes or 1 hour (FIG. 6)
  SM hydrolysis, dose and time response: induced SM hydrolysis in a dose and time dependent manner
[1]; 100 μM
  SM reduction at very high concentration: SM reduction was prevented
[1]; 1 hour
  optimal concentration for SM degradation: 25 to 50 µM
[1]; ASMko neurons, 1 hour incubation (FIG. 5A)
  sphingomyelin levels: reduced sphingomyelin levels
[1]; FAAH inhibitors at 50 μM, 1 hour
  effect of addition of exogenous anandamide on SM hydrolysis by FAAH inhibitors: did not further enhance SM hydrolysis
[1]; URB concentrations other than the lowest, 1 hour
  SM reduction with URB and anandamide versus URB alone: SM reduction was similar
[1]; lowest URB concentration, 1 hour
  effect of anandamide addition on SM reduction by URB: synergized the action of URB
[3]
  SM levels in intracellular compartments (lysenin staining): variable tendency to SM reduction that was not statistically significant
[4]
  neuronal death as assessed by TUNEL: did not induce neuronal death
[5]
  morphology, length, appearance of dendrites (MAP2): did not alter the morphology, length or homogeneous appearance of dendrites

## Cl.Cl.O=C(/C=C/c1ccc(/C=C/C(=O)Nc2ccc(C3=NCCN3)cc2)cc1)Nc1ccc(C2=NCCN2)cc1 [GW4869]
[1]; ASMko neurons, 1 hour (FIG. 5A)
  effect of co-incubation with the neutral sphingomyelinase inhibitor on the sphingomyelin reduction by anandamide or PF-04457845: prevented
